Reference: patent US12351656B2, “Functionalized and crosslinked polymers” (PMIDG, LLC, priority 2017, dated 2025)
Where a name gives a salt, the structure may show the parent alone.

Assays:
[1] = Bupivacaine release from FeCl3-crosslinked gels (HPLC); assay type: physicochemical; conditions: FeCl3-crosslinked 4% (w/v) gel with bupivacaine hydrochloride monohydrate, 2% SDS in PBS pH 7.4, 37° C.
Experimental: Sodium hyaluronate (1.4 m3/kg, approx. 800 kDa) and HA derivatives comprising mercaptosuccinic acid and thiophenol, as described in Example 60 and 61, were diluted to 4% (w/v) concentrations in deionized water and mixed with bupivacaine hydrochloride monohydrate (Sigma Aldrich B5274). The polymers were crosslinked using the addition of 2% FeCl3 solution in deionized water for 1:1 linking of carboxyl groups of sodium hyaluronate and chloride of FeCl3 and pH of the gels was adjusted to 6.5-7.5 using 0.25M NaOH solution. The release study buffer applied to each sample consisted of 2% (w/v) sodium dodecyl sulfate (SDS) dissolved in Phosphate buffered saline (pH 7.4, Sigma P3813). All samples were incubated at 37° C. and sampled for testing over 96 hours. For each timepoint, 0.25 ml of the sample was combined with 5 ml MeOH and then filtered through a 0.45 μm filter prior to analyzing using HPLC with a C18 column and 30:70 phosphate buffer (pH 5.0):methanol as mobile phase at 0.6 ml/min flow rate. The chromatogram was collected using a photodiode array detector at 205 nm and the amount of bupivacaine released was calculated from integral value of peak at the retention time of 7.1 minutes based on calibration performed previously.

[2] = Vancomycin hydrochloride release from FeCl3-crosslinked gels (HPLC); assay type: physicochemical; conditions: FeCl3-crosslinked 4% (w/v) gel, vancomycin hydrochloride 10% (w/w), PBS pH 7.4, 37° C.
Experimental: Sodium hyaluronate (1.4 m3/kg, approx. 800 kDa) and HA derivatives comprising mercaptosuccinic acid and thiophenol, as described in Example 59 and 60 were diluted to 4% (w/v) concentrations in deionized water and mixed with vancomycin hydrochloride (Sigma Aldrich PHR1732) at 10% (w/w) loading. The polymers were crosslinked using the addition of 2% FeCl3 solution (crosslinking agent) in deionized water for 1:1 linking of carboxyl groups of sodium hyaluronate and chloride of FeCl3 and pH of the gels was adjusted to 6.5-7.5 using 0.25M NaOH solution. The release study buffer applied to each sample consisted of phosphate buffered saline (pH 7.4, Sigma P3813). […] For each timepoint, 0.25 ml of the sample was combined with 5 ml H2O and then filtered through a 0.45 μm filter prior to analyzing using HPLC with a C18 column and 85:15 phosphate buffer (pH 3.0):methanol as mobile phase at 0.8 ml/min flow rate. The chromatogram was collected using a photodiode array detector at 205 nm and the amount of vancomycin hydrochloride released was calculated from integral value of peak at the retention time of 11.3 minutes based on calibration performed previously.

Row | % Bupivacaine Released ([1]; 0 hours) | % Bupivacaine Released ([1]; 1 hour) | % Bupivacaine Released ([1]; 3 hours) | % Bupivacaine Released ([1]; 6 hours) | % Bupivacaine Released ([1]; 24 hours) | SMILES | % Vancomycin Hydrochloride Release ([2]; 0 hours) | % Vancomycin Hydrochloride Release ([2]; 1 hour) | % Vancomycin Hydrochloride Release ([2]; 3 hours) | % Vancomycin Hydrochloride Release ([2]; 6 hours) | % Vancomycin Hydrochloride Release ([2]; 24 hours) | % Vancomycin Hydrochloride Release ([2]; 96 hours)
1 | 0.00% | 72.54% | 70.10% | 71.43% | 83.46% | CCCCN1CCCCC1C(=O)Nc1c(C)cccc1C (centres unmarked) [Bupivacaine, bupivacaine hydrochloride monohydrate] | – | – | – | – | – | –
2 | – | – | – | – | – | CN[C@H](CC(C)C)C(=O)N[C@H]1C(=O)N[C@@H](CC(N)=O)C(=O)N[C@H]2C(=O)N[C@H]3C(=O)N[C@H](C(=O)N[C@H](C(=O)O)c4cc(O)cc(O)c4-c4cc3ccc4O)[C@H](O)c3ccc(c(Cl)c3)Oc3cc2cc(c3O[C@@H]2O[C@H](CO)[C@@H](O)[C@H](O)[C@H]2O[C@H]2C[C@](C)(N)[C@H](O)[C@H](C)O2)Oc2ccc(cc2Cl)[C@H]1O [Vancomycin, vancomycin hydrochloride] | 0.00% | 98.03% | 95.40% | 92.08% | 90.70% | 72.11%
